Source: patent US20100150944A1, “METHODS AND COMPOSITIONS FOR DIAGNOSIS AND TREATMENT OF DEPRESSION AND ANXIETY” (MODGENE, LLC, priority 2007, published 2010)

Columns and labels:
C57BL/6J mice [1] = assay: forced-swim test, C57BL/6J mice; assay type: in vivo, mouse; settings: for immobility in forced-swim test: last 4 minutes of 6-minute test
Description: Briefly, in the Porsolt forced swim test, swim sessions are conducted by placing animals in containers with a level of water selected to be deep enough so that the animal cannot touch the bottom with its hind limbs or tail, nor can it escape. Two swim sessions are conducted, an initial 15 minute pretest one day prior to administration of the antidepressant drug and a second 5 minute test after administration of the drug (e.g., infusion of the drug into the midbrain) is begun. Each animal's 5 minute test sessions are videotaped for scoring later. The amount of time the animal spends active (swimming, exploring or trying to escape) and the time the rat is immobile (not struggling and making only those movements necessary to keep its head above water) is measured. Drugs with anti-depressant like activity decrease the immobility time.
(§1) As described above, the murine responses in forced swim and tail suspension tests provides a model for determining depression. We tested C57BL/6J and DBA/2J mice in the forced-swim and tail-suspension tests. In the forced-swim test, mice were gently placed in a clear plastic cylinder, diameter of 16 cm, height 25 cm, filled with 10 cm of clear water at 25° C. Test duration was 6 minutes and immobility, defined as the absence of all movement except minor movement required for the mouse to keep its head above the surface, was measured during the last 4 minutes. In the tail-suspension test, mice were suspended from a metal rod mounted 50 cm above the surface by fastening the tail to the rod with adhesive tape. The duration of the test was 6 minutes and immobility, defined as the absence of all but respiratory movements, was measured during the last 4 minutes. During the last 4 minutes of a 6-minute forced swim, unmedicated inbred C57BL/6J mice spent 152 seconds of the possible 240 seconds immobile (FIG. 2). In contrast, inbred DBA/2J mice had baseline (unmedicated) immobilities of 47 seconds (see FIG. 2). […] We investigated the hypothesis that the differences between these two inbred mouse lines that result in differing baseline immobilities in the forced-swim test at least in part arise from differences in the amount of mRNA that accumulates from specific genes.
We purchased some of the compound (Toronto Research Chemicals Inc., 2 Brisbane Rd., North York, Ontario, Canada M3J 2J8) and dissolved it in phosphate-buffered saline (PBS) containing 2.5 percent methanol.
When plain PBS/methanol solution (without 3Ac-SL0101) was administered to C57BL/6J mice, their immobility was 127 seconds. When the solution containing the 3Ac-SL0101 compound was administered in a very low dose, their immobility was reduced to 78 seconds, indicative of an antidepressant-like effect. […] When the compound was administered to DBA/2J mice, it was effective at an approximately 10-fold lower dose than in C57BL/6J mice, highly consistent with the notion that it is functioning by reducing the activity of rpS6.

RSK2 = RSK2 (Homo sapiens, UniProt P51812); settings: cited from earlier work
DBA/2J mice [2] = settings: baseline 100 seconds; cited from earlier work
p90 RSK = settings: cited from earlier work
C57BL/6J mice [3] = settings: 10 mg/kg, last 4 minutes of 6-minute forced swim, unmedicated 143 seconds; cited from earlier work
DBA/2J mice [4] = assay: forced-swim test, DBA/2J mice; assay type: in vivo, mouse; settings: DBA/2J mice versus C57BL/6J mice
Description: as §1, with “genes. […]” for “genes.”

[5] = tested on: p90 ribosomal S6 kinase, or RSK; settings: cultured tumor cells; cited from earlier work
mice = assay: tail-suspension test; settings: mouse, in vivo
Description: An additional procedure for monitoring the effects of antidepressants involves suspending the mice by the tail from a lever and recording movements of the animal. The total duration of the test (usually about 6 minutes) can be divided into periods of agitation and immobility. Antidepressants will generally decrease the duration of immobility (Stem et al., Psychopharmacology 85(3) 367-70). A computerized version of this test, referred to as […]-TST has been developed and is well known to those of skill in that art as a primary screening test for antidepressant activity (Stem et al., Prog. Neuropsychpharmacol. Biol. Psychiatry 11(6)659-671, 1987). Additional devices for monitoring depression also are known to those of skill in the art (Nomura et al., Yakubutsu Seishiiz Kodo 12(5)207-13, 1992).
As described above, the murine responses in forced swim and tail suspension tests provides a model for determining depression. We tested C57BL/6J and DBA/2J mice in the forced-swim and tail-suspension tests. […] Test duration was 6 minutes and immobility, defined as the absence of all movement except minor movement required for the mouse to keep its head above the surface, was measured during the last 4 minutes. […] The duration of the test was 6 minutes and immobility, defined as the absence of all but respiratory movements, was measured during the last 4 minutes. […]

Sequence of RSK2 (P51812 whole entry): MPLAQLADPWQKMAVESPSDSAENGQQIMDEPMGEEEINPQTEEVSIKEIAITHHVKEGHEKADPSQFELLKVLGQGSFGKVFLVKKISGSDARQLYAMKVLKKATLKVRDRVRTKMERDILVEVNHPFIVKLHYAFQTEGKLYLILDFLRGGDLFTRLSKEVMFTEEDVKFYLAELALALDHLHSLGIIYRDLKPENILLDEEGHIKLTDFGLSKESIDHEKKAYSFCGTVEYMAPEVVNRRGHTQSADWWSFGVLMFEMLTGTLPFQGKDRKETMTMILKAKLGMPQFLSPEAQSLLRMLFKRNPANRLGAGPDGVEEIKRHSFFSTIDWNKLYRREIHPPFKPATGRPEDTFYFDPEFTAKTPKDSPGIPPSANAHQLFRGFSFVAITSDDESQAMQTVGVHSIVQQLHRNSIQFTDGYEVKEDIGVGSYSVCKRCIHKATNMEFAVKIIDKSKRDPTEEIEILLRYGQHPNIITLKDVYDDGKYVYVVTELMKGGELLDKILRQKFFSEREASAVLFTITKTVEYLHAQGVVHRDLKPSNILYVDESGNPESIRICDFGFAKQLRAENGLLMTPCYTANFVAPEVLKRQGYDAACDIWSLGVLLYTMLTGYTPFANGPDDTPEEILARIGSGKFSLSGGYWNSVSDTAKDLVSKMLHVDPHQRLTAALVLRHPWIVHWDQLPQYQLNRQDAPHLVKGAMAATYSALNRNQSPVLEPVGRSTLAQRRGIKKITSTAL

## O=c1c(O)c(-c2ccc(O)cc2)oc2cc(O)cc(O)c12 [kaempferol]
C57BL/6J mice [1]; dose dependent manner, within minutes after intraperitoneal injection
  immobility time in forced-swim test: reduce immobility time
RSK2
  inhibition of RSK2: inhibitor of the RSK2

## CNCCC(Oc1ccc(C(F)(F)F)cc1)c1ccccc1 (stereo not shown) [fluoxetine]
DBA/2J mice [2]
  immobility in forced swim: 50 s

## CC(C)CCN1c2nc(Nc3cc(F)c(O)c(F)c3)ncc2N(C)C(=O)C1C (stereo not shown) [BI-D1870]
C57BL/6J mice [1]; FIG. 4
  time of immobility in forced swim test: substantial reduction
p90 RSK
  inhibition of p90 RSK: specific inhibitor of the p90 RSK

## CNCCCN1c2ccccc2CCc2ccccc21 [desipramine]
C57BL/6J mice [3]
  immobility in forced swim: 100 s
DBA/2J mice [2]
  immobility in forced swim: 50 s

## CC(=O)O[C@@H]1[C@@H](OC(C)=O)[C@H](C)O[C@@H](Oc2c(-c3ccc(O)cc3)oc3cc(O)cc(O)c3c2=O)[C@@H]1OC(C)=O [3Ac-SL0101]
DBA/2J mice [4]
  effective dose in DBA/2J mice relative to C57BL/6J mice: approximately 10 fold lower dose
C57BL/6J mice [1]; 20-fold higher dose
  immobility in forced-swim test: 0 s
C57BL/6J mice [1]; varying dosages, FIG. 3
  dose response of immobility in forced-swim test: monotonic dose-response effect
C57BL/6J mice [1]; very low dose, PBS/methanol control 127 seconds
  immobility in forced-swim test: 78 s
[5]
  inhibition of RSK activity: inhibits the activity of this kinase
mice
  immobility in tail-suspension test: reduced immobility
